# Experimental data published in patent US20250171438A1 (Agios Pharmaceuticals, Inc., priority 2022, published 2025).
# Target: T1, human PAH with the R408W mutation (Homo sapiens, UniProt P00439, R408W)
# T1 construct: expressed in transfected cells
# T1 sequence (P00439 1-452 R408W): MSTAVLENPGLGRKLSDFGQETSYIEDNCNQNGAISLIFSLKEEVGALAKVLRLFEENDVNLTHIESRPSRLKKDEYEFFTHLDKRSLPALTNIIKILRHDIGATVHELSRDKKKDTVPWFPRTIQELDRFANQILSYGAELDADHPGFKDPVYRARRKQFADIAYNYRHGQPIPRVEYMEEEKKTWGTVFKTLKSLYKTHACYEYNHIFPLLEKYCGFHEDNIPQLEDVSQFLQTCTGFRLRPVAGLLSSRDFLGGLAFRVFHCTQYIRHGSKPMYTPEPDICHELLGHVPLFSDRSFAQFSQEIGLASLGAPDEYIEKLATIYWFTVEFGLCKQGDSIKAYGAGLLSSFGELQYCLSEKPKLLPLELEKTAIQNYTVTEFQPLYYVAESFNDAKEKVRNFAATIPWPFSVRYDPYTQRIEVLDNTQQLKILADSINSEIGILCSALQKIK
# Test: Cell Based Phenylalanine Flux Assay
# Conditions: A375 cells expressing human R408W PAH; 24 hrs compound incubation; 13C-Tyrosine by LC-MS; average where tested multiple times; read-out: AC50
row,SMILES,AC50
1,"O=C(Cc1nc(C(F)(F)F)cs1)N1CCc2[nH]cnc2[C@@H]1c1nc2ccccc2s1 [Example 1034, (R)-1-(4-(benzo[d]thiazol-2-yl)-6,7-dihydro-1H-imidazo[4,5-c]pyridin-5(4H)-yl)-2-(4-(trifluoromethyl)thiazol-2-yl)ethenone]",> 5000 nM
2,"O=C(c1cnn(-c2ccc(F)cc2)c1)N1CCc2[nH]cnc2[C@@H]1c1nc2ccccc2s1 [Example 1412, (R)-(4-(benzo[d]thiazol-2-yl)-6,7-dihydro-1H-imidazo[4,5-c]pyridin-5(4H)-yl)(1-(4-fluorophenyl)-1H-pyrazol-4-yl)methanone]",1000 to 5000 nM
3,Cn1nccc1C(=O)N1CCc2[nH]cnc2[C@H]1c1nc2ccccc2s1 [Example 1839],< 500 nM
4,O=C(c1cnn2ccc(Cl)cc12)N1CCc2[nH]cnc2[C@H]1c1nc2c(F)cccc2s1 [Example 1195],< 500 nM
5,O=C(c1cnn2ccc(Cl)cc12)N1CCc2[nH]cnc2[C@H]1c1nc2cc(F)ccc2s1 [Example 1167],500 to 1000 nM
6,"CC(C)(O)c1nc(C2CC2)c(C(=O)N2CCc3[nH]cnc3[C@@H]2c2nc3c(F)cccc3s2)o1 [Example 1538, (R)-(4-cyclopropyl-2-(2-hydroxypropan-2-yl)oxazol-5-yl)(4-(4-fluorobenzo[d]thiazol-2-yl)-6,7-dihydro-1H-imidazo[4,5-c]pyridin-5(4H)-yl)methanone]",1000 to 5000 nM
7,Cc1nn(C)c(C)c1-c1ncc(C(=O)N2CCc3[nH]cnc3[C@H]2c2nc3ccccc3s2)s1 [Example 1405],< 500 nM
8,O=C(c1cnn2cc(CN3CCOCC3)ccc12)N1CCc2[nH]cnc2[C@H]1c1nc2ccccc2s1 [Example 2155],1000 to 5000 nM
9,O=C(c1ncc(Cl)s1)N1CCc2[nH]cnc2[C@H]1c1nc2cc(F)ccc2s1 [Example 1261],1000 to 5000 nM
10,"O=C(c1oc(CN2CCOCC2)nc1C(F)(F)F)N1CCc2[nH]cnc2[C@@H]1c1nc2ccccc2s1 [Example 1628, (R)-(4-(benzo[d]thiazol-2-yl)-6,7-dihydro-1H-imidazo[4,5-c]pyridin-5(4H)-yl)(2-(morpholinomethyl)-4-(trifluoromethyl)oxazol-5-yl)methanone]",< 500 nM
11,"O=C(c1cnn(CC2CC(F)(F)C2)c1Cl)N1CCc2[nH]cnc2[C@H]1c1nc2c(F)cccc2s1 [Example 1989, (S)-(5-chloro-1-((3,3-difluorocyclobutyl)methyl)-1H-pyrazol-4-yl)(4-(4-fluorobenzo[d]thiazol-2-yl)-6,7-dihydro-1H-imidazo[4,5-c]pyridin-5(4H)-yl)methanone]",1000 to 5000 nM
12,"Cc1nc(C2(O)CC2)oc1C(=O)N1CCc2[nH]cnc2[C@@H]1c1nc2c(F)cccc2s1 [Example 1950, (R)-(4-(4-fluorobenzo[d]thiazol-2-yl)-6,7-dihydro-1H-imidazo[4,5-c]pyridin-5(4H)-yl)(2-(1-hydroxycyclopropyl)-4-methyloxazol-5-yl)methanone]",> 5000 nM
13,"Cn1nncc1C(=O)N1CCc2[nH]cnc2[C@@H]1c1nc2c(F)cccc2s1 [Example 1726, (R)-(4-(4-fluorobenzo[d]thiazol-2-yl)-6,7-dihydro-1H-imidazo[4,5-c]pyridin-5(4H)-yl)(1-methyl-1H-1,2,3-triazol-5-yl)methanone]",1000 to 5000 nM
14,"O=C(c1cn(CC2CC2)nc1Cl)N1CCc2[nH]cnc2[C@H]1c1nc2c(F)cccc2s1 [Example 1983, (S)-(3-chloro-1-(cyclopropylmethyl)-1H-pyrazol-4-yl)(4-(4-fluorobenzo[d]thiazol-2-yl)-6,7-dihydro-1H-imidazo[4,5-c]pyridin-5(4H)-yl)methanone]",< 500 nM
15,"O=C(CCc1ccc(F)cc1)N1CCc2[nH]cnc2[C@@H]1c1nc2ccccc2s1 [Example 1006, (R)-1-(4-(benzo[d]thiazol-2-yl)-6,7-dihydro-1H-imidazo[4,5-c]pyridin-5(4H)-yl)-3-(4-fluorophenyl)propan-1-one]",> 5000 nM
16,"O=C(c1ocnc1-c1ccccn1)N1CCc2[nH]cnc2[C@@H]1c1nc2ccccc2s1 [Example 1449, (R)-(4-(benzo[d]thiazol-2-yl)-6,7-dihydro-1H-imidazo[4,5-c]pyridin-5(4H)-yl)(4-(pyridin-2-yl)oxazol-5-yl)methanone]",> 5000 nM
17,"O=C(c1cn[nH]c1Cl)N1CCc2[nH]cnc2[C@@H]1c1nc2ccccc2s1 [Example 2035, (R)-(4-(benzo[d]thiazol-2-yl)-6,7-dihydro-1H-imidazo[4,5-c]pyridin-5(4H)-yl)(5-chloro-1H-pyrazol-4-yl)methanone]",1000 to 5000 nM
18,"Cc1nc([C@H](C)O)oc1C(=O)N1CCc2[nH]cnc2[C@@H]1c1nc2c(F)cccc2s1 [Example 1912, ((R)-4-(4-fluorobenzo[d]thiazol-2-yl)-6,7-dihydro-1H-imidazo[4,5-c]pyridin-5(4H)-yl)(2-((S)-1-hydroxyethyl)-4-methyloxazol-5-yl)methanone]",> 5000 nM
19,"N#Cc1nc(N2CCC(F)CC2)oc1C(=O)N1CCc2[nH]cnc2[C@@H]1c1nc2ccccc2s1 [Example 1652, (R)-5-(4-(benzo[d]thiazol-2-yl)-4,5,6,7-tetrahydro-1H-imidazo[4,5-c]pyridine-5-carbonyl)-2-(4-fluoropiperidin-1-yl)oxazole-4-carbonitrile]",> 5000 nM
20,C=Cc1ccc2c(C(=O)N3CCc4[nH]cnc4[C@H]3c3nc4ccccc4s3)cnn2c1 [Example 1231],500 to 1000 nM
21,O=C(N1CC(F)C1)N1CCc2[nH]cnc2[C@H]1c1nc2ccccc2s1 [Example 1689],< 500 nM
22,"Cc1nc(C(C)(C)C#N)oc1C(=O)N1CCc2[nH]cnc2[C@H]1c1nc2c(F)cccc2s1 [Example 1998, (S)-2-(5-(4-(4-fluorobenzo[d]thiazol-2-yl)-4,5,6,7-tetrahydro-1H-imidazo[4,5-c]pyridine-5-carbonyl)-4-methyloxazol-2-yl)-2-methylpropanenitrile]",< 500 nM
23,"O=C(c1cnn2cc(-c3ccccc3)ccc12)N1CCc2[nH]cnc2[C@@H]1c1nc2ccccc2s1 [Example 1210, (R)-(4-(benzo[d]thiazol-2-yl)-6,7-dihydro-1H-imidazo[4,5-c]pyridin-5(4H)-yl)(6-phenylpyrazolo[1,5-a]pyridin-3-yl)methanone]",> 5000 nM

# Same assay, conditions: A375 cells expressing human R408W PAH; 24 hrs with compound; 13C-Tyrosine by LC-MS; average where tested multiple times; read-out: AC50
row,SMILES,AC50
1,O=C(c1nccs1)N1CCc2[nH]cnc2C1c1nc2ccc(Cl)cc2s1 (centres unmarked),> 5000 nM
2,O=C(Cc1nccs1)N1CCc2[nH]cnc2C1c1nc2ccc(Br)cc2[nH]1 (centres unmarked),1000 to 5000 nM
3,O=C(c1cnn2cc(Br)ccc12)N1CCc2[nH]cnc2C1c1nc2cc(F)ccc2s1 (centres unmarked),1000 to 5000 nM
4,COC(=O)N1CC(C(=O)N2CCc3[nH]cnc3C2c2nc3ccccc3s2)C1 (centres unmarked),1000 to 5000 nM
5,Cc1nc(CN2CCOCC2)oc1C(=O)N1CCCc2[nH]cnc2C1c1nc2ccccc2s1 (centres unmarked),> 5000 nM
6,"Cc1ccn2ncc(C(=O)N3CCc4[nH]cnc4[C@H]3c3nc4ccccc4[nH]3)c2c1 [(S)-(4-(1H-benzo[d]imidazol-2-yl)-6,7-dihydro-1H-imidazo[4,5-c]pyridin-5(4H)-yl)(5-methylpyrazolo[1,5-a]pyridin-3-yl)methanone]",1000 to 5000 nM
7,O=C(c1ccc2ncsc2c1)N1CCc2[nH]cnc2C1c1nc2ccccc2[nH]1 (centres unmarked),> 5000 nM
8,O=C(c1n[nH]c2ccccc12)N1CCc2[nH]cnc2C1c1nc2cccc(F)c2s1 (centres unmarked),1000 to 5000 nM
9,Cn1nc(COC(F)(F)F)cc1C(=O)N1CCc2[nH]cnc2C1c1nc2c(F)cccc2s1 (centres unmarked),1000 to 5000 nM
